Tests used:
[1] = target: T1, Orexin/Hypocretin receptor type 1 (Homo sapiens, UniProt O43613); experiment: Antagonist activity at human OX1R expressed in CHO-K1 cells assessed as inhibition of orexin-A-induced increase in calcium mobilization preincubated for 15 mins followed orexin-A stimulation by Fura-2-AM dye based fluorescence assay
T1 sequence (O43613 whole entry): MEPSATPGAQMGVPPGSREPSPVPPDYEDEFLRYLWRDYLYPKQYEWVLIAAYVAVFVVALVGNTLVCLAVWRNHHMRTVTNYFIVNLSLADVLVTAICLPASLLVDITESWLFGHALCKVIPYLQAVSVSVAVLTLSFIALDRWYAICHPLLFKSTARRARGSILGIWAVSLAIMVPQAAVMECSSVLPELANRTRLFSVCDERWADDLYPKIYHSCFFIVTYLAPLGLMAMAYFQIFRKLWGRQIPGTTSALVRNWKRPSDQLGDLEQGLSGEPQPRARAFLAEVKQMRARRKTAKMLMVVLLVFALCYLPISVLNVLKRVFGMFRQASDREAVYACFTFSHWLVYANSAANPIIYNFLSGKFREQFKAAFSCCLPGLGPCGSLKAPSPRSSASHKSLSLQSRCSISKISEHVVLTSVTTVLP

[2] = target: T2, Orexin/Hypocretin receptor type 1 (Homo sapiens) (UniProt O43613); experiment: Agonist activity at OX1R (unknown origin) expressed in CHO cells at 10 uM by cell-based calcium assay relative to Orexin A; assay type: functional
T2 sequence (whole entry): T1 sequence (O43613 whole entry)

[3] = target: T3, Orexin receptor type 2 (Homo sapiens) (UniProt O43614); experiment: Agonist activity at OX2R (unknown origin) expressed in CHO cells at 10 uM by cell-based calcium assay relative to orexin A; assay type: functional
T3 sequence (whole entry): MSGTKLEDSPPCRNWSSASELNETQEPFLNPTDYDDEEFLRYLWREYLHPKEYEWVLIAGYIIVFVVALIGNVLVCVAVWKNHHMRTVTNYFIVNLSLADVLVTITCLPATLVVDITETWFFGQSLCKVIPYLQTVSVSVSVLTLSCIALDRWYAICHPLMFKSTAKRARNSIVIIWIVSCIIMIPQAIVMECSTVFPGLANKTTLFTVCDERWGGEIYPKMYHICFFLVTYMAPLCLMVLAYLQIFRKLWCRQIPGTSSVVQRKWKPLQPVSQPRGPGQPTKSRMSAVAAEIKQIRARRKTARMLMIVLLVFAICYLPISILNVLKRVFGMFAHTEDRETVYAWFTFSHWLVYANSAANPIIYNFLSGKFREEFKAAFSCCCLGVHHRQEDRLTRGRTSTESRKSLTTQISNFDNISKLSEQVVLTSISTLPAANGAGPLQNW

[4] = target: T1, Orexin/Hypocretin receptor type 1; experiment: Agonist activity at OX1R (unknown origin) expressed in CHO cells by cell-based calcium assay; assay type: functional
Orexin receptor type 2 = target: T4, Orexin receptor type 2 (Homo sapiens, UniProt O43614); experiment: Agonist activity at OX2R (unknown origin) expressed in CHO cells by cell-based calcium assay; assay type: functional
T4 sequence (O43614 whole entry): T3 sequence (whole entry)

Homo sapiens = organism: Homo sapiens; experiment: Selectivity ratio of EC50 for agonist activity at human OX1R expressed in CHO-K1 cells to EC50 for agonist activity at human OX2R expressed in CHO-K1 cells; assay type: cell-based

Structure (SMILES) | Ki [1] [µM] | Efficacy [2] [%] | Efficacy [3] [%] | EC50 [4] [µM] | EC50 (Orexin receptor type 2) [µM] | Ratio EC50 (Homo sapiens)
COc1ccc(C(=O)Nc2cccc([C@]3(C)O[C@H]4CO[C@@H]5N4[C@H]3O[C@@]5(C)c3cccc(NC(=O)c4ccc(OC)cc4)c3)c2)cc1 | 0.00217 | – | – | – | – | –
COc1ccc(C(=O)Nc2cccc([C@]3(C)O[C@@H]4CO[C@H]5N4[C@@H]3O[C@@]5(C)c3cccc(NC(=O)c4ccc(OC)cc4)c3)c2)cc1 | 0.00523 | – | – | – | – | –
COC(=O)N1CCC[C@H](NS(C)(=O)=O)[C@@H]1CO[C@H]1CC[C@@H](c2ccccc2)CC1 | – | – | – | – | – | > 5000

Now from value to molecule, other results behind:

Ki [1] [µM] | Efficacy [2] [%] | Efficacy [3] [%] | EC50 [4] [µM] | EC50 (Orexin receptor type 2) [µM] | Structure (SMILES) | Ratio EC50 (Homo sapiens)
– | < 5 | < 5 | > 10 | > 10 | COc1ccc(-c2cccc(C(=O)N(C)C)c2)cc1S(=O)(=O)Nc1ccc2ccc(NC(=O)c3ccccc3)cc2c1 | –
– | – | – | > 10 | > 10 | COc1ccccc1C(=O)N(C)c1cccc2ccc(NS(=O)(=O)c3cc(-c4cccc(C(=O)N(C)C)c4)ccc3OC)cc12 | –
– | < 5 | < 5 | > 10 | > 10 | COc1ccc(-c2cccc(C(=O)N(C)C)c2)cc1S(=O)(=O)Nc1ccc2ccc(N(C)C(=O)c3ccccc3)cc2c1 | –
